Assay results published in patent publication US12358919B2, “Antibacterial compounds” (Universita' degli Studi di Siena, priority 2019, dated 2025).

Experiments:
Escherichia coli CCUG^T = assay: microbe, parasite or virus in culture; type: cell-based; details: E. coli CCUG^T
Method in brief: (§1)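 MICs were determined by CLSI M07 broth dilution, for each compound alone and with a fixed sub-inhibitory concentration of polymyxin E1 (colistin). Potentiation fold is the MIC alone divided by the MIC with polymyxin E.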

[1] = tested on: Klebsiella pneumoniae ATCC 13833; assay: microbe, parasite or virus in culture; type: cell-based; details: K. pneumoniae ATCC 13833
Method in brief: as §1

[2] = tested on: Acinetobacter baumannii ATCC 17978; assay: microbe, parasite or virus in culture; type: cell-based; details: A. baumannii ATCC 17978
Method in brief: as §1

[3] = tested on: Streptococcus pyogenes ATCC 12344; assay: MIC, broth microdilution (direct antibacterial activity); type: cell-based; details: ATCC12344, S. pyogenes ATCC 12344, compound alone, 18-24 h, read-out: MIC
Method: (§2) Growth inhibition or killing of bacteria was investigated using conventional methods widely described in the scientific literature. Parameters such as the Minimum Inhibitory Concentration (MIC) were determined as described in Clinical Laboratory Standard Institute (CLSI) document M07 “Methods for Dilution Antimicrobial Susceptibility Tests for Bacteria That Grow Aerobically, 11th Edition” (2018). Synergistic activity of the compounds described in the present specification were determined by measuring the variation of the MIC's compound in the absence and presence of a sub-inhibitory concentration of a suitable antibacterial agent, such as polymyxin E1. Furthermore, the Fractional Inhibitory Concentrations (FICs) were measured using a chequerboard analysis to determine the average FIC index (FICI), whose value is known to characterize the interaction between two compounds and/or drugs (≤0.5, synergistic interaction; >0.5 and <2, no interaction, additive effect; ≥2, antagonistic interaction). Furthermore, the selectivity of the compounds was investigated by measuring their cytotoxic effect on mammalian cell lines (e.g. HeLa cells).
(§3) The MIC values were determined using the broth microdilution method as described in document M07 using Mueller-Hinton broth as culture medium and an initial bacterial inoculum size of 5×10^5 CFU/mL, with a final volume of 100 μL per well in a 96-well microplate. Bacterial strains were Bacillus subtilis ATCC 6633, Enterococcus faecalis ATCC 29212, Streptococcus pyogenes ATCC 12344 and Staphylococcus aureus ATCC 25923. The tested compound concentration ranged from 512 to 0.25 mg/L. Plates were incubated for 18-24 hours at 35±2° C. prior to results analysis.

[4] = tested on: Staphylococcus aureus ATCC 25923; assay: as above; type: cell-based; details: ATCC25923, S. aureus ATCC 25923, compound alone, 18-24 h, read-out: MIC
Method: as §2, §3

[5] = tested on: Bacillus subtilis ATCC 6633; assay: as above; type: cell-based; details: ATCC6633, B. subtilis ATCC 6633, compound alone, 18-24 h, read-out: MIC
Method: as §2, §3

[6] = tested on: Enterococcus faecalis ATCC 29212; assay: as above; type: cell-based; details: ATCC29212, E. faecalis ATCC 29212, compound alone, 18-24 h, read-out: MIC
Method: as §2, §3

A. baumannii ATCC 17978 = assay: Chequerboard analysis with polymyxin E1 (average FIC index); type: cell-based, Acinetobacter baumannii; details: compound + polymyxin E1
K. pneumoniae ATCC 13833 = assay: as above; type: cell-based, Klebsiella pneumoniae; details: compound + polymyxin E1
in vitro = type: cell-based; details: human
Method: as §2
The selectivity and potential cytotoxic effect of antibacterial compounds is a key aspect of such drugs. […]

E. coli CCUG^T = assay: Chequerboard analysis with polymyxin E1 (average FIC index); type: cell-based, Escherichia coli; details: compound + polymyxin E1
[7] = ratio MICcompound/MICcompound+polymyxin E
[8] = with 0.25xMIC polymyxin E1 (0.12 mg/L)

## CCCCn1c(=O)c(C(=O)NC23CC4CC(CC(C4)C2)C3)c(O)c2nn(C)cc21 [Ib, N-(Adamantan-1-yl)-4-(1-butyl)-4,5-dihydro-7-hydroxy-2-methyl-5-oxo-2H-pyrazolo[4,3-b]pyridin-6-carboxamide]
Escherichia coli CCUG^T; [7]
  Potentiation fold: ≥64
Escherichia coli CCUG^T; [8]
  MIC in presence of colistin: 8 mg/L
Escherichia coli CCUG^T; Escherichia coli, compound alone, read-out: MIC
  MIC: > 512 µg/mL
[1]; [7]
  Potentiation fold: ≥64
[1]; [8]
  MIC in presence of colistin: 8 mg/L
[1]; Klebsiella pneumoniae, ATCC13833, compound alone, read-out: MIC
  MIC: > 512 µg/mL
[2]; [7]
  Potentiation fold: ≥128
[2]; with 0.25xMIC polymyxin E1 (0.25 mg/L)
  MIC in presence of colistin: 4 mg/L
[2]; Acinetobacter baumannii, ATCC17978, compound alone, read-out: MIC
  MIC: > 512 µg/mL
[3]
  MIC: 16 µg/mL
[4]
  MIC: 64 µg/mL
[5]
  MIC: 32 µg/mL
[6]
  MIC: 64 µg/mL
A. baumannii ATCC 17978
  Average FIC index: 0.29
K. pneumoniae ATCC 13833
  Average FIC index: 0.30
In vitro
  IC50 at 24 h: > 256 µg/mL
E. coli CCUG^T
  Average FIC index: 0.26
